Measurements from PMC3997483, “Aminostyrylbenzofuran Directly Reduces Oligomeric Amyloid-β and Reverses Cognitive Deficits in Alzheimer Transgenic Mice” (PLoS ONE, 2014).

How the values were obtained:
Type in all cases: in vivo, mouse
[1] = test system: Aβ40 and Aβ42; assay: Aβ40/Aβ42 sandwich ELISA of hippocampus, therapeutic trial; conditions: 30 mg/kg/day, 3 months
Experimental: (§1) Mice subjected to behavior tests were sacrificed and levels of Aβ in their brains were analyzed. After removing olfactory lobe and cerebellum of brain, hippocampus and cerebral cortex were separated. The separated regions were Dounce-homogenized first in 10-fold mass of a lysis buffer (RIPA, 150 mM NaCl, 1% NP-40, 0.5% deoxycholic acid, 0.1% SDS and 50 mM tris, pH 8.0) or tris buffer (50 mM tris and pH 8.0) containing protease inhibitor cocktail (Pierce, USA) for prophylactic or therapeutic treatment groups, respectively. The homogenates were then centrifuged at 16,000 g for 20 min at 4°C. The supernatant (soluble Aβ fraction) was collected and stored at −70°C until analyzed. The resulting pellet was solubilized in 20-fold mass of cold guanidine solution (5 M guanidine HCl, 50 mM tris HCl and pH 8.0) at room temperature for 4 hr followed by dilution with cold Dulbecco's phosphate buffered saline (PBS) with 5% BSA and 0.03% tween-20. The diluent was centrifuged at 16,000 g for 20 min at 4°C to obtain the insoluble Aβ fraction. The tissue concentrations of Aβ40 and Aβ42 in the soluble and insoluble fraction were measured using Aβ-detecting sandwich enzyme-linked immunosorbent assay (ELISA) kit (BioSource, USA). The levels of soluble Aβ oligomers were measured by a dot-blot immunoassay with an anti-oligomer antibody and an anti-Aβ antibody on soluble fraction of hippocampus homogenates. The homogenate sample (3 µL) was spotted onto nitrocellulose membrane (Whatman, UK). After blocking with 5% BSA in tris-buffered saline (TBS) for 1 hr at room temperature, the membrane was incubated with rabbit anti-oligomer polyclonal antibody (A11; 1∶1,000; Millipore, USA) overnight at 4°C, followed by incubation with HRP-secondary anti-rabbit antibody (1∶5,000; Millipore, USA) for 1 hr at room temperature. Blots were developed using ECL reagents (PerkinElmer, USA). […] The density of dots was analyzed with Multi Gauge program (Fuji Film, Japan) and the data was normalized to the average density of the TG control group. […]

[2] = test system: APP/PS1 TG mice; assay: Contextual fear conditioning, prophylactic trial; conditions: vehicle TG 15.3%, WT 54.1%
[3] = test system: soluble Aβ oligomers; assay: Dot-blot immunoassay (A11/6E10) of soluble Aβ oligomers in hippocampus, prophylactic trial; conditions: hippocampus soluble fraction
Experimental: as §1

SMILES: COc1ccc2cc(C=Cc3ccc(N(C)C)cc3)oc2c1 [KMS88009, 6-methoxy-2-(4-dimethylaminostyryl) benzofuran]
- decrease of insoluble Aβ42 level vs TG littermates [1]: 50.9%
- decrease of insoluble Aβ40 level vs TG mice ([1]; not statistically significant): 44.9%
- decrease of soluble Aβ40 level vs TG mice ([1]; not statistically significant): 19.4%
- freezing responses (contextual fear conditioning) ([2]; PO 10 mg/kg/day): 42.3%
- freezing responses (contextual fear conditioning) ([2]; PO 30 mg/kg/day): 48.6%
- freezing responses (contextual fear conditioning) ([2]; PO 100 mg/kg/day): 49.3%
- reduction of soluble oligomeric Aβ vs vehicle-treated TG group ([3]; 10 mg/kg/day): 43.1%
- reduction of soluble oligomeric Aβ vs vehicle-treated TG group ([3]; 30 mg/kg/day): 43.2%
- reduction of soluble oligomeric Aβ vs vehicle-treated TG group ([3]; 100 mg/kg/day): 46.4%
